The target of test [1] is T1, Bone morphogenetic protein receptor type-2 (Homo sapiens) (UniProt Q13873).
T1 sequence (whole entry): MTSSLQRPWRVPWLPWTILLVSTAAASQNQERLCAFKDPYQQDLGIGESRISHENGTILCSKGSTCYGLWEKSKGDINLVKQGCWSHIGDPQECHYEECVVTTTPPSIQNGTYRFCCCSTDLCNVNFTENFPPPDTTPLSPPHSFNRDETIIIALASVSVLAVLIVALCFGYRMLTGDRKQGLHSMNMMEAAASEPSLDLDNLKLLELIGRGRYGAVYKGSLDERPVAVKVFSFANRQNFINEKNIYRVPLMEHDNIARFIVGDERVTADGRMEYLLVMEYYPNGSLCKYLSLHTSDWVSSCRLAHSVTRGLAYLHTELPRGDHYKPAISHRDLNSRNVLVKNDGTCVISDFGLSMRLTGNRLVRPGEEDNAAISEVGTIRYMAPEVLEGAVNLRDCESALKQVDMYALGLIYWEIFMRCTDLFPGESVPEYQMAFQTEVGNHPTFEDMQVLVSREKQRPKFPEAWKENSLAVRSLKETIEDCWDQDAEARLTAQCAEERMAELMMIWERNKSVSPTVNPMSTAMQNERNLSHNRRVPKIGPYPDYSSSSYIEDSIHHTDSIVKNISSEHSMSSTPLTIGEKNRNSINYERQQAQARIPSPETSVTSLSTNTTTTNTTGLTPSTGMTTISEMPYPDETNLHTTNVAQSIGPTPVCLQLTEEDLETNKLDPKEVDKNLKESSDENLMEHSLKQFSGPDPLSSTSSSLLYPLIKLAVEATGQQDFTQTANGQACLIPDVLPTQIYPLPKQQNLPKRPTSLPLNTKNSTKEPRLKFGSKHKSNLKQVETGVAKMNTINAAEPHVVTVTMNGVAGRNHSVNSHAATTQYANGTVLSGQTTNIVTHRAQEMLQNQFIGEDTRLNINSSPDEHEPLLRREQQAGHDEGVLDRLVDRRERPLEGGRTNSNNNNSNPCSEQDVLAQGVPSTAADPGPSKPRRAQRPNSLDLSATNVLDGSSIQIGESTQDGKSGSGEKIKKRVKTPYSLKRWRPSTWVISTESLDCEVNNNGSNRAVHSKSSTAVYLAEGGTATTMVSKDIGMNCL
Kind of test: BMPR2 SGC Tm panel (DSF). Particulars: for ΔTm: Compound concentration 10.0 uM.

The next test addresses T2, Peregrin (Homo sapiens) (UniProt P55201).
T2 sequence (whole entry): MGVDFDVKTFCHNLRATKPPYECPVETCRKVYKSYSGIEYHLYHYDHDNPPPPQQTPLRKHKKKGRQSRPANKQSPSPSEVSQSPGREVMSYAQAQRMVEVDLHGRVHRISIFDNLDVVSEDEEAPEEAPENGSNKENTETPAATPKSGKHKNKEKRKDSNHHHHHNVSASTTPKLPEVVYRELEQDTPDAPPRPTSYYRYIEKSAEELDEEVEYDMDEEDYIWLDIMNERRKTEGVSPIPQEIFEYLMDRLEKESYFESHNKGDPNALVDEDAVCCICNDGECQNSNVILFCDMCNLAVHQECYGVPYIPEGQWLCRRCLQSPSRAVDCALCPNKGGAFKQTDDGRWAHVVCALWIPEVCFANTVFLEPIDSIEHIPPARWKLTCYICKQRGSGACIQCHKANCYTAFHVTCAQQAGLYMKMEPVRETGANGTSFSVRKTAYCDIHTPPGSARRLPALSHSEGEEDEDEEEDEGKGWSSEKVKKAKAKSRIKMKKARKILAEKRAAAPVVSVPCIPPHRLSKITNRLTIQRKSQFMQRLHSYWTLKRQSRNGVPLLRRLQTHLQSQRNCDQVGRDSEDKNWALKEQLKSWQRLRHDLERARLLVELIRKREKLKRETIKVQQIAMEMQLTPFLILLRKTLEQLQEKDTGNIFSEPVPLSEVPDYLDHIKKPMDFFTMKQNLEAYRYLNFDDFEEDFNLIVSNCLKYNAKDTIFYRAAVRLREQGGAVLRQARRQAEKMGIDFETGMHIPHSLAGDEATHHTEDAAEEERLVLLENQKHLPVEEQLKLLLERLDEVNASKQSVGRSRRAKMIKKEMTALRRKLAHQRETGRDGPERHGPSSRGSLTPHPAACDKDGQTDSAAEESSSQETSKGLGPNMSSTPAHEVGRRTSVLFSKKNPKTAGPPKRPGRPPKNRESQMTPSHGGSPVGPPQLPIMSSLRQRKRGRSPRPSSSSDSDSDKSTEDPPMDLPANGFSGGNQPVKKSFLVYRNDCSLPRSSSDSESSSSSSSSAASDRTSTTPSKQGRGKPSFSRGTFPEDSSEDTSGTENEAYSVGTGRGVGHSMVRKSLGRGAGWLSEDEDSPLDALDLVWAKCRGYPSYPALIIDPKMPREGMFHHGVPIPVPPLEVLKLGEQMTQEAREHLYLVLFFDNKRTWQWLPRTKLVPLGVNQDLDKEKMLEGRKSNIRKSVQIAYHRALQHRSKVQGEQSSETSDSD
Kind of test: BRPF1 SGC Tm panel (DSF). Particulars: for ΔTm: Compound concentration 10.0 uM.

Test [2] addresses Cyclin-dependent kinase-like 1 (Homo sapiens) (UniProt Q00532). Briefly: CDKL1 SGC Tm panel (DSF). Particulars: for ΔTm: Compound concentration 10.0 uM.
For test [3], the target named is Serine/threonine-protein kinase Chk2 (Homo sapiens) (UniProt O96017). Briefly: CHEK2 SGC Tm panel (DSF). Particulars: for ΔTm: Compound concentration 10.0 uM.
Chain of Serine/threonine-protein kinase Chk2 (Homo sapiens) (O96017 whole entry): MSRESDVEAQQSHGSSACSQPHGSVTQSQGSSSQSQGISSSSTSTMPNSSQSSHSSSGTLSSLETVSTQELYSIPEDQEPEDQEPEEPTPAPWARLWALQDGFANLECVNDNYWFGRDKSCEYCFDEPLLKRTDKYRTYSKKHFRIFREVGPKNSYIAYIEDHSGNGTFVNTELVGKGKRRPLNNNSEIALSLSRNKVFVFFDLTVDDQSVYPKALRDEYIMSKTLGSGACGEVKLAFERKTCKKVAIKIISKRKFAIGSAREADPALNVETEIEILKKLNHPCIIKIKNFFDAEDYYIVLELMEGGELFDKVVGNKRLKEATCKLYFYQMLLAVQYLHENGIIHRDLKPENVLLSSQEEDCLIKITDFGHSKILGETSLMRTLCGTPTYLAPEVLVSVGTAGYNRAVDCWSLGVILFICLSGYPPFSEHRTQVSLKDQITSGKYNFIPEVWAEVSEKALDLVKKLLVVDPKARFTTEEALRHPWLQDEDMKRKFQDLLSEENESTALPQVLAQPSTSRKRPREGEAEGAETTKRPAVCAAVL
Test [4] has as its target T3, Muscarinic acetylcholine receptor M1 (Homo sapiens) (UniProt P11229).
T3 sequence (whole entry): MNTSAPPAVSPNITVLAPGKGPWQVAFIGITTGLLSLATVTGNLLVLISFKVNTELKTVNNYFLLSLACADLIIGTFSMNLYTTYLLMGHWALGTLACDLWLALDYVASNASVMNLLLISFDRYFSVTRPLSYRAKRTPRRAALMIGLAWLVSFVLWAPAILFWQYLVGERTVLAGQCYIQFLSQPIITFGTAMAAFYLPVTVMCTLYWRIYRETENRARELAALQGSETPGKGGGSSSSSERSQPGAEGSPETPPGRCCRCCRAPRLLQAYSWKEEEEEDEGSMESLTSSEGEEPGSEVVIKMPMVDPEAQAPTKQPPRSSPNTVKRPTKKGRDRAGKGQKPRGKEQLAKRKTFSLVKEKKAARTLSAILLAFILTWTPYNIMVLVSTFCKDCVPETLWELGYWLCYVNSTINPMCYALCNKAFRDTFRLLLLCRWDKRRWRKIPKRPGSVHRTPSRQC
Particulars: Compound concentration 10.0 uM.

For test [5], the target named is Muscarinic acetylcholine receptor M3 (Homo sapiens) (UniProt P20309). Particulars: Compound concentration 10.0 uM.
Chain of Muscarinic acetylcholine receptor M3 (Homo sapiens) (P20309 whole entry, looked up): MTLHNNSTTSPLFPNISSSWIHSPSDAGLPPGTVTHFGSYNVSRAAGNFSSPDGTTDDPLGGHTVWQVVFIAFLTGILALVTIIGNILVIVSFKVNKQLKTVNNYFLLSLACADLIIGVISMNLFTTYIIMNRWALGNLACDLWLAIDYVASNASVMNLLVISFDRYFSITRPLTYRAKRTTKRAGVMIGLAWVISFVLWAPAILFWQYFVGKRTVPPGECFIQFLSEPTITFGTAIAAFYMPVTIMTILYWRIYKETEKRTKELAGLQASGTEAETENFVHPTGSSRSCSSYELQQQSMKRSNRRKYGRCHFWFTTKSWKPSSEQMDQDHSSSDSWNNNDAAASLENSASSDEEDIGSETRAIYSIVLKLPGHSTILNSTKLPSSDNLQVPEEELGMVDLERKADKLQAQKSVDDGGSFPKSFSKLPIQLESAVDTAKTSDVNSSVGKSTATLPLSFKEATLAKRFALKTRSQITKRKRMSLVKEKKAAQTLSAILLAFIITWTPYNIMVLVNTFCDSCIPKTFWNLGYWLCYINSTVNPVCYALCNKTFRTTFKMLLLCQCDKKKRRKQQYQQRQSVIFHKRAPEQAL
In test [6] the target is Sigma non-opioid intracellular receptor 1 (Homo sapiens) (UniProt Q99720). Particulars: Compound concentration 10.0 uM.
Chain of Sigma non-opioid intracellular receptor 1 (Homo sapiens) (Q99720 whole entry): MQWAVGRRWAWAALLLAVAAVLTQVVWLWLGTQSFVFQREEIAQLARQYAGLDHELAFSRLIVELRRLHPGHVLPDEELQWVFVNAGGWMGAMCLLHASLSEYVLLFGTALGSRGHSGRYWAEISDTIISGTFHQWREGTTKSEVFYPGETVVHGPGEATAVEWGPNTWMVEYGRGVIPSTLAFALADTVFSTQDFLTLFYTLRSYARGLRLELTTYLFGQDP

The values below come from ChEMBL document CHEMBL5303765, “Data for DCP probe BAY-7081” (2023).

Structures are written as SMILES.

Chain of Cyclin-dependent kinase-like 1 (Homo sapiens) (Q00532 whole entry): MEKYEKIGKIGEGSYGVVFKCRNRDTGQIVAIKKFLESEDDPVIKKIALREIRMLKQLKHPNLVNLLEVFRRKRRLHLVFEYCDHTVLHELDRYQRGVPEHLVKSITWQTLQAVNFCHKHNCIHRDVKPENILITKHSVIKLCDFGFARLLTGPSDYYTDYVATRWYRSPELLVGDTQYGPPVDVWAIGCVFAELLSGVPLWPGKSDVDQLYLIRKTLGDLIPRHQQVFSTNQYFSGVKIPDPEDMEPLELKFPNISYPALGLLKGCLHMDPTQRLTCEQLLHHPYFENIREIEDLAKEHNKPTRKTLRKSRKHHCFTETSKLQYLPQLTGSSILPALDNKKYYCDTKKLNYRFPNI

In the case of `CCC[C@H]1CNCc2c1[nH]c(=O)c(C#N)c2N1CCC2(CC1)CC2`, the delta Tm Staurosporine positive control in test [1] is 3.02; at Peregrin (Homo sapiens) it was -0.107; in test [2], 7.07; in test [3], 17.8. For the same molecule, the ΔTm was 0.146 in test [1], -0.754 at Peregrin (Homo sapiens), -0.0258 in test [2] and 3.11 in test [3]. The inhibition in test [4] was 0.28%; in test [5], -1%; in test [6] it was 18.1%.

Regarding `CCC[C@@H]1CNCc2c1[nH]c(=O)c(C#N)c2N1CCC2(CC1)CC2`, the delta Tm Staurosporine positive control in test [1] is 3.02; on Peregrin (Homo sapiens), -0.107; in test [2] it was 7.07; in test [3], 17.8. The ΔTm is 0.0735 in test [1], -0.426 at Peregrin (Homo sapiens), -0.229 in test [2] and -0.386 in test [3]. In addition, the inhibition is -0.37% in test [4], 3.32% in test [5] and 13.2% in test [6].
